Reference: ChEMBL document CHEMBL5725537, “Pyrazolo-pyrrolidin-4-one derivatives and their use in the treatment of disease” (2017)

Columns and labels:
[1] = biological target: Bromodomain-containing protein 3 (Homo sapiens, UniProt Q15059); experiment: (§1) TR-FRET In-Vitro Binding Assays for BRD2, BRD3, and BRD4: All assays were performed in 384 well microtiter plates. Each assay plate contained 8-point serial dilutions for 40 test compounds, plus 16 high- and 16 low controls. Liquid handling and incubation steps were done on an Innovadyne Nanodrop Express equipped with a robotic arm (Thermo CatX, Perkin Elmer/Caliper Twister II) and an incubator (Liconic STX40, Thermo Cytomat 2C450). The assay plates were prepared by addition of 50 nl per well of compound solution in 90% DMSO HummingBird nanodispenser (Zinsser Analytic). The assay was started by stepwise addition of 4.5 μl per well of bromo domain protein (50 mM HEPES, pH 7.5, 0.005% Tween20, 0.1% BSA, 50 mM NaCl, 45 nM His-Brd2(60-472) or 45 nM His-Brd3(20-477) or 45 nM His-Brd4(44-477) all proteins produced in-house) and 4.5 μl per well of peptide solution (50 mM HEPES, pH 7.5, 0.005% Tween20, 0.1% BSA, 50 mM NaCl, 60 nM acetyl-histone H4 (AcK 5, 8, 12, 16) (Biosyntan GmbH)). Reactions were incubated at 30° C. for 35 minutes. Subsequently 4.5 μl per well detection mix (50 mM HEPES, pH 7.5, 0.005% Tween20, 0.1% BSA, 50 mM NaCl, 3 nM Eu-labeled anti-His6 antibody, 21 nM streptavidin-allophycocyanin) were added. After 35 minutes incubation at 30° C., plates were measured in a Perkin Elmer EnVision multilabel reader. Concentrations causing 50% inhibition (1050) values were determined from percent inhibition values at different compound concentrations by non-linear regression analysis.
Chain of Bromodomain-containing protein 3 (Q15059 whole entry, the tested form may be a part): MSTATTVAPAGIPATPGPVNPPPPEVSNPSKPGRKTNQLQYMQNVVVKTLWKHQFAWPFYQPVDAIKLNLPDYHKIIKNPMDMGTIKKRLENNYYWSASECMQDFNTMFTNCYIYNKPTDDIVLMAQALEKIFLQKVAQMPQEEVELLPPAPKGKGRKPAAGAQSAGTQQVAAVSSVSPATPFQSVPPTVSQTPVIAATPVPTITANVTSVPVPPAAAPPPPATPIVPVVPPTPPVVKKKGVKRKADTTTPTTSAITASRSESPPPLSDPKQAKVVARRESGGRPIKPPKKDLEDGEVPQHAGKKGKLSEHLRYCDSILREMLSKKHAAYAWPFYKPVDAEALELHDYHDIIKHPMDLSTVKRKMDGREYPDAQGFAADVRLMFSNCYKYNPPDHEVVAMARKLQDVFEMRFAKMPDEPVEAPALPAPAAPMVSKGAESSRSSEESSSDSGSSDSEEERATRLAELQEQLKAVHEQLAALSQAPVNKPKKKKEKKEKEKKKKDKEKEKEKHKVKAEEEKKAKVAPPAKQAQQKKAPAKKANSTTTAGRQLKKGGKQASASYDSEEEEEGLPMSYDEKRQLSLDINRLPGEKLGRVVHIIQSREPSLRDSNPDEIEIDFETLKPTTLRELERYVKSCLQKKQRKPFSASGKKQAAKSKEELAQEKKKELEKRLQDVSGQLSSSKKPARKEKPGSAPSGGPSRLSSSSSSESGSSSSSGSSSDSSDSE

[2] = biological target: Bromodomain-containing protein 4 (Homo sapiens, UniProt O60885); experiment: as §1
[3] = biological target: CREB-binding protein (Homo sapiens, UniProt Q92793); experiment: AlphaScreen In-Vitro Binding Assay for CREBBP: In order to assess bromodomain selectivity, we set up a binding assay using the bromodomain encoded by the CREBBP gene. […] Reactions were incubated at 30° C. for 35 minutes. Subsequently 4.5 μl per well detection mix (50 mM HEPES, pH 7.5, 0.005% Tween20, 0.02% BSA, 150 mM NaCl, 45 μg/ml Ni-chelate acceptor beads, 45 μg/ml streptavidin-donor beads) (Perkin Elmer)) were added. After 60 minutes incubation at room temperature, plates were measured in a Perkin Elmer EnVision multilabel reader. IC50 values were determined from percent inhibition values at different compound concentrations by non-linear regression analysis.
Chain of CREB-binding protein (Q92793 whole entry): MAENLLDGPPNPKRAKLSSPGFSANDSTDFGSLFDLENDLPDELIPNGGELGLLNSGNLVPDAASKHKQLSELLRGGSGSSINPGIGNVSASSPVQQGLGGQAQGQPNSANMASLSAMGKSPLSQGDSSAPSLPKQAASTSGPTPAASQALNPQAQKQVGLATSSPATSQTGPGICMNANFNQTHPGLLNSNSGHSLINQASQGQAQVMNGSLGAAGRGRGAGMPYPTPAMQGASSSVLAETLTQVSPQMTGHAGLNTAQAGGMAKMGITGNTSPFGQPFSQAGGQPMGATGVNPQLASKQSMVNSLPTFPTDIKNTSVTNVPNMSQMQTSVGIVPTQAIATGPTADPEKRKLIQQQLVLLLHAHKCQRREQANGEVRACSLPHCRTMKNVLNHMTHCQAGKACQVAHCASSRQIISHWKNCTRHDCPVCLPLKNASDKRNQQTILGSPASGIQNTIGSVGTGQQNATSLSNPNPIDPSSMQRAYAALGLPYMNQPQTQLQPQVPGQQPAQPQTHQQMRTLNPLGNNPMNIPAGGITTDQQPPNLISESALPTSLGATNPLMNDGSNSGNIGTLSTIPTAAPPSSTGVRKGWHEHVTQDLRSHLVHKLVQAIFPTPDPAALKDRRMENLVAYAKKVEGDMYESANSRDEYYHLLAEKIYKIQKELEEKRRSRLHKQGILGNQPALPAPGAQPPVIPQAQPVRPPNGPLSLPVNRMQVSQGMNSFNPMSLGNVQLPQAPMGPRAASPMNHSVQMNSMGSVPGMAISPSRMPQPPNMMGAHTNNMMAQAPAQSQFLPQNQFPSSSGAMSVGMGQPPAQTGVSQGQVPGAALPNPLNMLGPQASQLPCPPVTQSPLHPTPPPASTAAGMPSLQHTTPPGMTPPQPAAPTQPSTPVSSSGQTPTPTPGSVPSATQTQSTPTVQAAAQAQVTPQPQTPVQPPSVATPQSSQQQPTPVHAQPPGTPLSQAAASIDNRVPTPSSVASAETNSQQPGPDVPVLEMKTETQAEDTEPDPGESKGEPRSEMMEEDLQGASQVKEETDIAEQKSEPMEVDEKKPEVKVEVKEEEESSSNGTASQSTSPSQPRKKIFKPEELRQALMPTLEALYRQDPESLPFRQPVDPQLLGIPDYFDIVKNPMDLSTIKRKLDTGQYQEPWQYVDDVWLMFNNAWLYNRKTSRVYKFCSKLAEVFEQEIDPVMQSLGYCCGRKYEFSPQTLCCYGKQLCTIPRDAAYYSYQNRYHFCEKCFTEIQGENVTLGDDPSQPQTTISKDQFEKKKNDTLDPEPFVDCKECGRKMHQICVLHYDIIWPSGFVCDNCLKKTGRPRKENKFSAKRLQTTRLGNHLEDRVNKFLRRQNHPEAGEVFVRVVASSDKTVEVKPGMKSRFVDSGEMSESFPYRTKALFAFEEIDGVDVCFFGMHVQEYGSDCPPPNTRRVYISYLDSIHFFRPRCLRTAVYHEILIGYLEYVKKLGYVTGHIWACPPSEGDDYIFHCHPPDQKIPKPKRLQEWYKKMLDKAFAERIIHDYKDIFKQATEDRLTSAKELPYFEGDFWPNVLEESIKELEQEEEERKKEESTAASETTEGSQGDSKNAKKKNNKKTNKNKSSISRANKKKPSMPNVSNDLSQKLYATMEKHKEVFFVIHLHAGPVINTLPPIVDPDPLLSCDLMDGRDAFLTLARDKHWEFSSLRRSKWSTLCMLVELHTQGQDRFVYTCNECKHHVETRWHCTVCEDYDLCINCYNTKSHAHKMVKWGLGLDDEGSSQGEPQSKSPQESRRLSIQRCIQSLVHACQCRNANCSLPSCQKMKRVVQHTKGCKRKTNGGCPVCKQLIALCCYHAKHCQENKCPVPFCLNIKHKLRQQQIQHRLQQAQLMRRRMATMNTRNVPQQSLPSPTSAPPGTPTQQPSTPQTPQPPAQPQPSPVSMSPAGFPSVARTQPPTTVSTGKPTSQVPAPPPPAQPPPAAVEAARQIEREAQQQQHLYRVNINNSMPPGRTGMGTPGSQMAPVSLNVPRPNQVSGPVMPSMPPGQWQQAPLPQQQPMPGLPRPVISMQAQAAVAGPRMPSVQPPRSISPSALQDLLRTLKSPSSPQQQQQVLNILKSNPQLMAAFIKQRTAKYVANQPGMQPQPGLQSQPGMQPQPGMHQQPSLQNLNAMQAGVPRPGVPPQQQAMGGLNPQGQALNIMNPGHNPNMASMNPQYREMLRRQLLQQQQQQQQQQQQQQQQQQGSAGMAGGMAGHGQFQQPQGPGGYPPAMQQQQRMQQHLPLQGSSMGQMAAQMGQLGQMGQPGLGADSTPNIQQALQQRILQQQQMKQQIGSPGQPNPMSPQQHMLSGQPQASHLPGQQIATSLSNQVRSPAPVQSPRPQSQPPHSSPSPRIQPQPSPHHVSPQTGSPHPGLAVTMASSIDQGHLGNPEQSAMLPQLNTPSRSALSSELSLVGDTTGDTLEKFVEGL

[4] = biological target: Bromodomain-containing protein 2 (Homo sapiens, UniProt P25440); experiment: as §1
Chain of Bromodomain-containing protein 2 (P25440 whole entry): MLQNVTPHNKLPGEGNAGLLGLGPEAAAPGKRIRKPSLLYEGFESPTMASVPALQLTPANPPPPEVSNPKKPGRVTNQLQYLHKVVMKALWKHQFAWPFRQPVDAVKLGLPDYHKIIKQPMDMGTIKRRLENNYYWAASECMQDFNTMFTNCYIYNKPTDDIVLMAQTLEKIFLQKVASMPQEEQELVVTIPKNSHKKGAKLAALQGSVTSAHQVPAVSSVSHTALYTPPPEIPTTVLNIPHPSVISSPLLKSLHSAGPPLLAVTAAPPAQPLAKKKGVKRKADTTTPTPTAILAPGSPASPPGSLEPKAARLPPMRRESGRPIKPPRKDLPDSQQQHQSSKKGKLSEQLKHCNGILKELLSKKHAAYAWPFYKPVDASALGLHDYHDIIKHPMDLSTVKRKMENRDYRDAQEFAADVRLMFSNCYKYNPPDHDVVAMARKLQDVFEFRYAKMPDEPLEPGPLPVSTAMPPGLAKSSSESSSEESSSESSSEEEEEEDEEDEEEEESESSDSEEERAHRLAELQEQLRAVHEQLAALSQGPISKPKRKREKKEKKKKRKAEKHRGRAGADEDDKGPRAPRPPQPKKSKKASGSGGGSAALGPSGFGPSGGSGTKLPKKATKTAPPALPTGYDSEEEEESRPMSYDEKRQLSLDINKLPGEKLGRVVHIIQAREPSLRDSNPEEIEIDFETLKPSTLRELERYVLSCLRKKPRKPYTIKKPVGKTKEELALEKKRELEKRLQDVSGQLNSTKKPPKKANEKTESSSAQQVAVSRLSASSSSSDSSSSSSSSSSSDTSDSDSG

IC50 [1] [nM]	SMILES	IC50 [2] [nM]	IC50 [3] [nM]	IC50 [4] [nM]
62	CCOc1ncccc1-n1nc(C)c2c1C(c1ccc(Cl)cc1)N(c1cc(C)c(=O)n(C)c1)C2=O (stereo unspecified)	79	3100	
	COc1ncccc1-n1nc(C)c2c1C(c1ccc(Cl)cc1)N(c1cc(C)c(=O)n(C)c1)C2=O (stereo unspecified)	86	4000	78
